{
  "source": "patent US10238670B2",
  "about": "“9-aminomethyl minocycline compounds and methods of use thereof in urinary tract infection (UTI) treatment” (Paratek Pharmaceuticals, Inc., priority 2016, dated 2019)",
  "assay_in_all_cases": "In vitro MIC, 2010 surveillance isolates",
  "key": {"E. faecium VS": {"test_system": "E. faecium VS", "assay_type": "cell-based"}, "MR CoNS": {"test_system": "MR CoNS", "assay_type": "cell-based, Coagulase-Negative Staphylococcus"}, "E. faecium VNS": {"test_system": "E. faecium VNS", "assay_type": "cell-based"}, "MS CoNS": {"test_system": "MS CoNS", "assay_type": "cell-based, Coagulase-Negative Staphylococcus"}, "E. faecalis VS": {"test_system": "E. faecalis VS", "assay_type": "cell-based"}, "E. faecalis VNS": {"test_system": "E. faecalis VNS", "assay_type": "cell-based"}, "MRSA": {"test_system": "MRSA", "assay_type": "cell-based"}, "MSSA": {"test_system": "MSSA", "assay_type": "cell-based"}},
  "data": [
    {"smiles": "CN[C@H](CC(C)C)C(=O)N[C@H]1C(=O)N[C@@H](CC(N)=O)C(=O)N[C@H]2C(=O)N[C@H]3C(=O)N[C@H](C(=O)N[C@H](C(=O)O)c4cc(O)cc(O)c4-c4cc3ccc4O)[C@H](O)c3ccc(c(Cl)c3)Oc3cc2cc(c3O[C@@H]2O[C@H](CO)[C@@H](O)[C@H](O)[C@H]2O[C@H]2C[C@](C)(N)[C@H](O)[C@H](C)O2)Oc2ccc(cc2Cl)[C@H]1O", "note": "[Vancomycin]", "values": [
      {"measurement": "% R (resistance)", "setting": "E. faecium VS; Asia/Pac, Eucast breakpoints", "result": 0, "unit": "%"},
      {"measurement": "MIC90", "setting": "E. faecium VS; Asia/Pac, N=106", "result": 1, "unit": "µg/mL"},
      {"measurement": "% R (resistance)", "setting": "E. faecium VS; Europe, Eucast breakpoints", "result": 0, "unit": "%"},
      {"measurement": "MIC90", "setting": "E. faecium VS; Europe, N=303", "result": 1, "unit": "µg/mL"},
      {"measurement": "% R (resistance)", "setting": "E. faecium VS; L. Amer, CLSI breakpoints", "result": 0, "unit": "%"},
      {"measurement": "MIC90", "setting": "E. faecium VS; L. Amer, N=51", "result": 1, "unit": "µg/mL"},
      {"measurement": "% R (resistance)", "setting": "E. faecium VS; N America, CLSI breakpoints", "result": 0, "unit": "%"},
      {"measurement": "MIC90", "setting": "E. faecium VS; N America, N=115", "result": 1, "unit": "µg/mL"},
      {"measurement": "% R (resistance)", "setting": "MR CoNS; Asia/Pac, Eucast breakpoints", "result": 1.3, "unit": "%"},
      {"measurement": "MIC90", "setting": "MR CoNS; Asia/Pac, N=77", "result": 2, "unit": "µg/mL"},
      {"measurement": "% R (resistance)", "setting": "MR CoNS; Europe, Eucast breakpoints", "result": 0.4, "unit": "%"},
      {"measurement": "MIC90", "setting": "MR CoNS; Europe, N=510", "result": 2, "unit": "µg/mL"},
      {"measurement": "% R (resistance)", "setting": "MR CoNS; L. Amer, CLSI breakpoints", "result": 0, "unit": "%"},
      {"measurement": "MIC90", "setting": "MR CoNS; L. Amer, N=301", "result": 2, "unit": "µg/mL"},
      {"measurement": "% R (resistance)", "setting": "MR CoNS; N America, CLSI breakpoints", "result": 0, "unit": "%"},
      {"measurement": "MIC90", "setting": "MR CoNS; N America, N=461", "result": 2, "unit": "µg/mL"},
      {"measurement": "% R (resistance)", "setting": "E. faecium VNS; Asia/Pac, Eucast breakpoints", "result": 100, "unit": "%"},
      {"measurement": "MIC90", "setting": "E. faecium VNS; Asia/Pac, N=24", "result": "> 16", "unit": "µg/mL"},
      {"measurement": "% R (resistance)", "setting": "E. faecium VNS; Europe, Eucast breakpoints", "result": 100, "unit": "%"},
      {"measurement": "MIC90", "setting": "E. faecium VNS; Europe, N=71", "result": "> 16", "unit": "µg/mL"},
      {"measurement": "% R (resistance)", "setting": "E. faecium VNS; L. Amer, CLSI breakpoints", "result": 100, "unit": "%"},
      {"measurement": "MIC90", "setting": "E. faecium VNS; L. Amer, N=41", "result": "> 16", "unit": "µg/mL"},
      {"measurement": "% R (resistance)", "setting": "E. faecium VNS; N America, CLSI breakpoints", "result": 99.4, "unit": "%"},
      {"measurement": "MIC90", "setting": "E. faecium VNS; N America, N=478", "result": "> 16", "unit": "µg/mL"},
      {"measurement": "% R (resistance)", "setting": "MS CoNS; Asia/Pac, Eucast breakpoints", "result": 0, "unit": "%"},
      {"measurement": "MIC90", "setting": "MS CoNS; Asia/Pac, N=18", "result": 2, "unit": "µg/mL"},
      {"measurement": "% R (resistance)", "setting": "MS CoNS; Europe, Eucast breakpoints", "result": 1.1, "unit": "%"},
      {"measurement": "MIC90", "setting": "MS CoNS; Europe, N=185", "result": 2, "unit": "µg/mL"},
      {"measurement": "% R (resistance)", "setting": "MS CoNS; L. Amer, CLSI breakpoints", "result": 0, "unit": "%"},
      {"measurement": "MIC90", "setting": "MS CoNS; L. Amer, N=67", "result": 2, "unit": "µg/mL"},
      {"measurement": "% R (resistance)", "setting": "MS CoNS; N America, CLSI breakpoints", "result": 0, "unit": "%"},
      {"measurement": "MIC90", "setting": "MS CoNS; N America, N=191", "result": 2, "unit": "µg/mL"},
      {"measurement": "% R (resistance)", "setting": "E. faecalis VS; Asia/Pac, Eucast breakpoints", "result": 0, "unit": "%"},
      {"measurement": "MIC90", "setting": "E. faecalis VS; Asia/Pac, N=214", "result": 2, "unit": "µg/mL"},
      {"measurement": "% R (resistance)", "setting": "E. faecalis VS; Europe, Eucast breakpoints", "result": 0, "unit": "%"},
      {"measurement": "MIC90", "setting": "E. faecalis VS; Europe, N=669", "result": 2, "unit": "µg/mL"},
      {"measurement": "% R (resistance)", "setting": "E. faecalis VS; L. Amer, CLSI breakpoints", "result": 0, "unit": "%"},
      {"measurement": "MIC90", "setting": "E. faecalis VS; L. Amer, N=290", "result": 2, "unit": "µg/mL"},
      {"measurement": "% R (resistance)", "setting": "E. faecalis VS; N America, CLSI breakpoints", "result": 0, "unit": "%"},
      {"measurement": "MIC90", "setting": "E. faecalis VS; N America, N=863", "result": 2, "unit": "µg/mL"},
      {"measurement": "range of MICs (N <10, shown instead of MIC90)", "setting": "E. faecalis VNS; Asia/Pac, N=1", "result": ">16"},
      {"measurement": "% R (resistance)", "setting": "E. faecalis VNS; Europe, Eucast breakpoints", "result": 100, "unit": "%"},
      {"measurement": "range of MICs (N <10, shown instead of MIC90)", "setting": "E. faecalis VNS; Europe, N=8", "result": "> 16"},
      {"measurement": "% R (resistance)", "setting": "E. faecalis VNS; L. Amer, CLSI breakpoints", "result": 100, "unit": "%"},
      {"measurement": "range of MICs (N <10, shown instead of MIC90)", "setting": "E. faecalis VNS; L. Amer, N=7", "result": "> 16"},
      {"measurement": "% R (resistance)", "setting": "E. faecalis VNS; N America, CLSI breakpoints", "result": 92.1, "unit": "%"},
      {"measurement": "MIC90", "setting": "E. faecalis VNS; N America, N=38", "result": "> 16", "unit": "µg/mL"},
      {"measurement": "% R (resistance)", "setting": "MRSA; Asia/Pac, Eucast breakpoints", "result": 0, "unit": "%"},
      {"measurement": "MIC90", "setting": "MRSA; Asia/Pac, N=428", "result": 1, "unit": "µg/mL"},
      {"measurement": "% R (resistance)", "setting": "MRSA; Europe, Eucast breakpoints", "result": 0, "unit": "%"},
      {"measurement": "MIC90", "setting": "MRSA; Europe, N=750", "result": 1, "unit": "µg/mL"},
      {"measurement": "% R (resistance)", "setting": "MRSA; L. Amer, CLSI breakpoints", "result": 0, "unit": "%"},
      {"measurement": "MIC90", "setting": "MRSA; L. Amer, N=506", "result": 1, "unit": "µg/mL"},
      {"measurement": "% R (resistance)", "setting": "MRSA; N America, CLSI breakpoints", "result": 0, "unit": "%"},
      {"measurement": "MIC90", "setting": "MRSA; N America, N=2508", "result": 1, "unit": "µg/mL"},
      {"measurement": "% R (resistance)", "setting": "MSSA; Asia/Pac, Eucast breakpoints", "result": 0, "unit": "%"},
      {"measurement": "MIC90", "setting": "MSSA; Asia/Pac, N=641", "result": 1, "unit": "µg/mL"},
      {"measurement": "% R (resistance)", "setting": "MSSA; Europe, Eucast breakpoints", "result": 0, "unit": "%"},
      {"measurement": "MIC90", "setting": "MSSA; Europe, N=2109", "result": 1, "unit": "µg/mL"},
      {"measurement": "% R (resistance)", "setting": "MSSA; L. Amer, CLSI breakpoints", "result": 0, "unit": "%"},
      {"measurement": "MIC90", "setting": "MSSA; L. Amer, N=590", "result": 1, "unit": "µg/mL"},
      {"measurement": "% R (resistance)", "setting": "MSSA; N America, CLSI breakpoints", "result": 0, "unit": "%"},
      {"measurement": "MIC90", "setting": "MSSA; N America, N=2373", "result": 1, "unit": "µg/mL"}
    ]}
  ]
}
